Tests used:
[1] = tested on: phenol oxidizing enzyme from Acremonium murorum; test: Bleaching of tomato stains on cotton swatches, phenol oxidizing enzyme/enhancer system, 50 mM Tris buffer wash solution; format: biochemical; conditions: enhancer 250 μM, 50 mM Tris buffer pH 9, 30 minutes, 30° C.; for ΔE, stain bleach performance, Oily Tomato Stain, With enzyme / ΔE, stain bleach performance, Tomato Extract, With enzyme: enzyme 20 mg/l
Procedure: (§1) The potential of the various enhancer to boost the bleach performance of phenol oxidizing enzyme was assessed by washing cotton swatches soiled with tomato stains. Two different bleach monitors were used:
(§2) Tomato extract material was prepared by acetone extraction of the chromophores from concentrated tomato paste. For the preparation of the stains, the colored acetone solution was applied to cotton swatches.
(§3) Oily tomato stains were prepared by applying heated concentrated tomato paste, to which 5 wt % Soya oil was added, to cotton swatches.
(§4) The pH of the wash solution was set to pH 9. Purified phenol oxidizing enzyme from Acremonium murorum was added to the wash solution at 20 mg/l. The enzyme from Acremonium murorum is decribed in WO-A-00/05349 (Unilever). The enhancers were all dosed at 250 μM. The wash solution was 50 mM Tris buffer.
(§5) The swatches were washed during 30 minutes, at 30° C. After the wash, the swatches were tumble-dried and the reflectance spectra were measured using a Minolta spectrometer. The color differences between the swatch before and after the wash data were expressed in the CIELAB L*a*b* color space. In this color space, L* indicates lightness and a* and b* are the chromaticity coordinates. Color differences between two swatches are expressed as ΔE, which is calculated from the following equation: […]

[2] = tested on: phenol oxidizing enzyme from Acremonium murorum; test: Bleaching of tomato stains on cotton swatches, phenol oxidizing enzyme/enhancer system, detergent formulation wash solution; format: biochemical; conditions: enhancer 250 μM, detergent formulation 2 g/l, 30 minutes, 30° C.; for ΔE, stain bleach performance, Oily Tomato Stain, With enzyme / ΔE, stain bleach performance, Tomato Extract, With enzyme: enzyme 20 mg/l
Procedure: as §1, §2, §3, §4, §5
Example 1 was repeated, using this time as wash solution a detergent formulation having the composition shown below, at a concentration of 2 g/l. The amounts are given in weight %.

| Structure (SMILES) | ΔE, stain bleach performance, Oily Tomato Stain, With enzyme [1] | ΔE, stain bleach performance, Oily Tomato Stain, Without enzyme [1] | ΔE, stain bleach performance, Tomato Extract, With enzyme [1] | ΔE, stain bleach performance, Tomato Extract, Without enzyme [1] | ΔE, stain bleach performance, Oily Tomato Stain, With enzyme [2] | ΔE, stain bleach performance, Oily Tomato Stain, Without enzyme [2] | ΔE, stain bleach performance, Tomato Extract, With enzyme [2] | ΔE, stain bleach performance, Tomato Extract, Without enzyme [2] |
| --- | --- | --- | --- | --- | --- | --- | --- | --- |
| Cc1ccc(S(=O)(=O)Nc2cc(Br)c(O)c(Br)c2Br)cc1 [3Brphenol3MeBSA, N-(2,3,5-tribromo-4-hydroxyphenyl) -4-Methyl benzenesulfonamide] | 6.21 | 1.56 | 19.59 | 10.86 | 11.71 | 6.87 | 27.57 | 12.86 |
| O=S(=O)(Nc1cc(Br)c(O)c(Br)c1Br)c1ccccc1 [3BrphenolBSA, N-(2,3,5-tribromo-4-hydroxyphenyl)-benzenesulfonamide] | 5.62 | 4.18 | 19.97 | 10.33 | 10.95 | 6.89 | 26.87 | 12.99 |

From patent publication US6323014A, “Method and composition for enhancing the activity of an enzyme” (Unilever Home & Personal Care division of Conopco, Inc., priority 1999, dated 2001)
